Laboratory results: PMC2843925 (ACS chemical neuroscience, 2010)

Legend:
DAT = details: known DAT ligands; ref Ukairo et al. ([12]); cited from earlier work
hSERT [1] = target: T1, hSERT (Homo sapiens, UniProt P31645); assay: [125I]-RTI-55 binding, HEK-hSERT membranes; details: for Hill coefficient: [125I]-RTI-55 binding
hDAT [2] = target: T2, hDAT (Homo sapiens, UniProt Q01959); assay: [125I]-RTI-55 binding, HEK-hDAT membranes; details: for Hill coefficient: [125I]-RTI-55 binding
hDAT [3] = target: T2, hDAT; assay: [3H]-WIN 35,428 binding displacement in hDAT N2A cells; details: 10 μM, pre- or co-incubation
hNET [4] = target: T3, hNET (Homo sapiens, UniProt P23975); assay type: binding
hSERT [5] = target: T1, hSERT; assay: [3H]-serotonin uptake inhibition, HEK-hSERT cells; assay type: cell-based; details: read-out: [3H]-Serotonin uptake IC50, mean ± SEM
hNET [6] = target: T3, hNET; assay type: cell-based
[7] = ref [17]; cited from earlier work
hDAT [8] = target: T2, hDAT; assay: [3H]-dopamine uptake inhibition in hDAT N2A cells
hDAT [9] = target: T2, hDAT; assay: [3H]-dopamine uptake inhibition, HEK-hDAT cells; assay type: cell-based; details: switch to HEK cells

T2 sequence (Q01959 whole entry): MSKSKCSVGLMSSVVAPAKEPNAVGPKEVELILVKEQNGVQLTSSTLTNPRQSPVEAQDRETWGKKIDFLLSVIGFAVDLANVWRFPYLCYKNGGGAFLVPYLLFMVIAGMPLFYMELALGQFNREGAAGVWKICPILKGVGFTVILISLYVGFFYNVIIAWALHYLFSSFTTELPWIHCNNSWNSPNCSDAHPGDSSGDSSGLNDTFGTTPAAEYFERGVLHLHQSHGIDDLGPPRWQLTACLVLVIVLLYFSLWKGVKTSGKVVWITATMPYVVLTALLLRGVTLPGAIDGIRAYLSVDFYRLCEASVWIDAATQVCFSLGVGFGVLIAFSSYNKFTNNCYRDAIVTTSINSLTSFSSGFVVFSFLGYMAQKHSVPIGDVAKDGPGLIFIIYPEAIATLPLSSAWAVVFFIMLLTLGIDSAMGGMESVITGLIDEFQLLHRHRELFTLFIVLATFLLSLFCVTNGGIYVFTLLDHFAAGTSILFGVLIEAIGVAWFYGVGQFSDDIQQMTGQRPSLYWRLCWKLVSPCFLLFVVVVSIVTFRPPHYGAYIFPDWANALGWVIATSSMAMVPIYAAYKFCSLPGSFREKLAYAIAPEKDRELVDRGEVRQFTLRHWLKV
T3 sequence (P23975 whole entry): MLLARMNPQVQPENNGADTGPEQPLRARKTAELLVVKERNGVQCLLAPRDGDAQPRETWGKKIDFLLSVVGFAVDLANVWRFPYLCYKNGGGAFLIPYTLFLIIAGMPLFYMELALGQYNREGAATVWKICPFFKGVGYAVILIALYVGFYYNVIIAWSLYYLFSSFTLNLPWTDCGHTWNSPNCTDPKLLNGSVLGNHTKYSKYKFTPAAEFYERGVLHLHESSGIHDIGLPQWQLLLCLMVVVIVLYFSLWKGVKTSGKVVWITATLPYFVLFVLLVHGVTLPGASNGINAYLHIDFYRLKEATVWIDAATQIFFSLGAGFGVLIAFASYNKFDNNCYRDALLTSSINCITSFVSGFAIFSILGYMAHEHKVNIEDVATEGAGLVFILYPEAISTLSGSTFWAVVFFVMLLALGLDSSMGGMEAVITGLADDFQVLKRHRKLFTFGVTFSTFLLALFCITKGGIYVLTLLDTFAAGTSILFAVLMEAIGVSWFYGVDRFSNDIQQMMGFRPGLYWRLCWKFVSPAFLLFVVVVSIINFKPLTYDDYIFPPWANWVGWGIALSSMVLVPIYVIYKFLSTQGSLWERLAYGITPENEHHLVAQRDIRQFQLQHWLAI
T1 sequence (P31645 whole entry): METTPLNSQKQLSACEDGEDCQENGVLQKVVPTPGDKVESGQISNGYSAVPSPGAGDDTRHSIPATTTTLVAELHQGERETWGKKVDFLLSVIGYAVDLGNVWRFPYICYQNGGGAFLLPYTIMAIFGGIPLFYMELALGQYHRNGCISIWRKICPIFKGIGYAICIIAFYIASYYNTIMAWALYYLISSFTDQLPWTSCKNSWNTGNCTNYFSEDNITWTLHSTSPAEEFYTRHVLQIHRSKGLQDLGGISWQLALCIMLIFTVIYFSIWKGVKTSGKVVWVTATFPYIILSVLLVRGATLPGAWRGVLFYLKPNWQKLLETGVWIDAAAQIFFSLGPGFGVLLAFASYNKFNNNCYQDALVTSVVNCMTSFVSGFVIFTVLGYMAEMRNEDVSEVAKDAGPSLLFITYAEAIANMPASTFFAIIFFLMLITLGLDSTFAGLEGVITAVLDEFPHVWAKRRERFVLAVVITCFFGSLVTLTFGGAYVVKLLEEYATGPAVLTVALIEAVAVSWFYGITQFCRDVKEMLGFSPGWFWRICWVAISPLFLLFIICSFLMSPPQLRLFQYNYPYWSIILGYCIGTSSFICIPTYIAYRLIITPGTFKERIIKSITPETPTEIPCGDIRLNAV

Q: For `COC(=O)[C@H]1[C@@H](OC(=O)c2ccccc2)C[C@@H]2CC[C@H]1O2` [8-Oxa-norcocaine, methyl (1R,2R,3S,5S)-3-benzoyloxy-8-oxabicyclo[3.2.1]octane-2-carboxylate], which “E pKi (experimental pKi)” value (DAT) is on record?
A: 5.81

Q: With `OC1(c2ccc(Cl)cc2)c2ccccc2C2=NCCN21` (stereo not shown) [Mazindol, 5-(4-chlorophenyl)-2,3-dihydroimidazo[2,1-a]isoindol-5-ol] as the compound, how does the “E pKi (experimental pKi)” value (DAT) read?
A: 7.89

Q: What does the source list for `COC(=O)[C@H]1[C@@H](OC(=O)c2ccccc2)C[C@@H]2CC[C@H]1N2C` [Cocaine, methyl (1R,2R,3S,5S)-3-benzoyloxy-8-methyl-8-azabicyclo[3.2.1]octane-2-carboxylate, reference compound]?
A: Hill coefficient (hSERT [1]; HEK-hSERT cells): -1.12 ± 0.03; Hill coefficient (hDAT [2]; HEK-hDAT cells): -0.81 ± 0.03

Q: With `COC(=O)[C@@H]1CN(C)CC[C@@H]1c1ccc(Cl)cc1` [4-ARA-127, (1S, 3S, 4R)-4-(chlorophenyl)-3-[hydroxy(methyloxo)methyl]-1-methylpiperidin-1iium] as the compound, how does the “E pKi (experimental pKi)” value (DAT) read?
A: 5.48

Q: Which “Block of [3H]-WIN 35,428 binding in initial screen” value (hDAT [3]) does the source give for `C[C@@H](CN1CCC(Cc2ccccc2)CC1)[C@@H](O)c1ccc(O)cc1.Cl` (relative stereo) [MI-4, [R-(R*, S*)]-α-(4-Hydroxyphenyl)-β-methyl-4-(phenylmethyl)-1-piperidinepropanol hydrochloride] here?
A: able to block [^3H]-WIN 35,428 binding in a statistically significant fashion

Q: And the “Affinity at hNET higher than at hDAT” value (hNET [4]; HEK cells)?
A: 10 fold

Q: And the Hill coefficient (hNET [4]; HEK-hNET cells, [125I]-RTI-55 binding)?
A: -1.04 ± 0.07

Q: And the Ki (hNET [4]; read-out: [125I]-RTI-55 binding Ki, HEK-hNET cells, mean ± SEM)?
A: 365 ± 68 nM

Q: And the IC50 (hSERT [5])?
A: 790 ± 170 nM

Q: What about the “Affinity at hSERT higher than at hDAT” value (hSERT [1]; HEK cells) of the same compound?
A: 5 fold

Q: And the Hill coefficient (hSERT [1]; HEK-hSERT cells)?
A: -1.09 ± 0.04

Q: And the Ki (hSERT [1]; read-out: [125I]-RTI-55 binding Ki, HEK-hSERT cells, mean ± SEM)?
A: 670 ± 100 nM

Q: What about the “Substrate uptake inhibition potency at hNET greater than at hDAT” value (hNET [6]; HEK cells) of the same compound?
A: 3 – 4 fold

Q: What about the IC50 (hNET [6]; read-out: [3H]-NE uptake IC50, HEK-hNET cells, mean ± SEM) of the same compound?
A: 2090 ± 280 nM

Q: What about the “Crosses the blood-brain barrier” value [7] of the same compound?
A: crosses the blood-brain barrier

Q: What about the “[3H]-dopamine uptake inhibition in screening assay” value (hDAT [8]; 10 μM) of the same compound?
A: did not appreciably inhibit dopamine uptake

Q: What about the “Shift of cocaine DUIP IC50 by MI-4” value (hDAT [8]; 10 μM MI-4) of the same compound?
A: approximately 3 fold

Q: And the IC50 (hDAT [8]; read-out: Dopamine uptake inhibition potency (DUIP))?
A: 28000 nM

Q: And the “DUIP increase, HEK vs N2A cells” value (hDAT [9])?
A: 4 fold

Q: And the “DAT affinity lower than that of cocaine” value (hDAT [2]; HEK-hDAT cells)?
A: 20 fold

Q: And the Hill coefficient (hDAT [2]; HEK-hDAT cells)?
A: -0.80 ± 0.10

Q: What about the Ki (hDAT [2]; read-out: [125I]-RTI-55 binding Ki, HEK-hDAT cells, mean ± SEM) of the same compound?
A: 3460 ± 260 nM

Q: What about the “DAT affinity increase, HEK vs N2A cells” value (hDAT [2]; switch to HEK cells) of the same compound?
A: ~2 fold

Q: For `COC(=O)[C@H]1[C@@H](c2ccc(F)cc2)C[C@@H]2CC[C@H]1N2C` [WIN 35,428, methyl (1R,2S,3S,5S)-3-(4-fluorophenyl)-8-methyl-8-azabicyclo[3.2.1]octane-2-carboxylate], which “E pKi (experimental pKi)” value (DAT) is on record?
A: 7.70
